Experimental data published in patent US4468387A, “Pesticidal N-sulfonyl N'-oxalate phosphorodiamido(di)thioates” (Rohm and Haas Company, priority 1982, dated 1984).

Assays:
Format in all cases: in vivo
[1] = test system: Two-spotted spider mite (Tetranychus urticae); assay: mite test, sprayed infested bean leaf discs (two-spotted spider mite); details: 600 ppm; leaf disc spray; percent kill after 24 hours
Source text: (§1) A test solution containing 600 ppm of test compound can be made by dissolving the test compound in a solvent (acetone:methanol, 1:1), adding surfactant and then water to give an acetone:methanol:water system of 10:10:80. A 1:1 mixture of an alkylarylpolyetheralcohol (commercially available under the trademark Triton X-155) and a modified phthalic glycerol alkyl resin (commercially available under the trademark Triton B-1956) can be utilized at the equivalent of one ounce per 100 gallons of test solution and a surfactant.
For the mite test, infested bean (Phaseolus limeanus) leaf discs (1.25 inches in diameter) containing about 50 mites are placed in a Petri dish lid on a moistened piece of cotton. The leaves are then sprayed with the test solution using a rotating turntable. They are held for 24 hours and then the percent kill is determined.

[2] = test system: Southern armyworm (Spodoptera eridania); assay: armyworm test, sprayed detached bean leaves, third instar southern armyworm larvae; details: 600 ppm, leaf spray, percent kill after 48 hours
Source text: as §1
For the armyworm test, detached bean leaves on pieces of moistened filter paper are sprayed as above for the mite test in similar dishes and allowed to dry. The dishes are infested with 10 third instar southern armyworm larvae. The dishes are covered. After holding for 48 hours, the percent kill is obtained.

[3] = test system: Southern root-knot nematode (Meloidogyne incognita); assay: nematode test, inoculated soil, cucumber root knots; details: about 30 ppm by volume in soil; knots on cucumber roots after about 23 days
Source text: as §1
For the nematode test, soil is homogeneously inoculated with a macerated blend of tomato roots heavily knotted with the root knot nematode. Ten milliliters of the test solution are added to 200 milliliters of the inoculated soil in a 16 oz. jar to give a concentration by volume of about 30 ppm. The jar is then shaken to insure thorough mixing, immediately uncapped, and allowed to air for 24 hours. The soil is then placed into a 3 inch plastic pot after which time 3 cucumber (Cucumis sativus) seeds are planted. About 23 days thereafter, the cucumber plants are removed from the soil and the root system examined for the presence of knots. A total of 15 knots or less is considered as a measure of control.

| SMILES | Insecticidal Screening Results, % Control, Two-Spotted Mite [1] | Insecticidal Screening Results, % Control, Southern Armyworm [2] | Nema (control of root-knot nematode) [3] |
| --- | --- | --- | --- |
| CCC(C)SP(=O)(N(C)C(=O)C(=O)OC(C)C)N(C)S(C)(=O)=O (stereo not drawn) [Example 1, N-Methanesulfonyl N,N'-dimethyl N'-[(1-methylethoxycarbonyl)carbonyl] S-(1-methylpropyl) phosphorodiamidothioate] | 100% | 100% | + (A total of 15 knots or less is considered as a measure of control) |
| CCC(C)SP(=O)(N(C)C(=O)C(=O)OC)N(C)S(C)(=O)=O (stereo not drawn) [Example 2, N-Methanesulfonyl N'-[(methoxycarbonyl)carbonyl] N,N'-dimethyl S-(1-methylpropyl) phosphorodiamidothioate] | 100% | 100% | + (A total of 15 knots or less is considered as a measure of control) |
| CCC(C)SP(=O)(N(C)C(=O)C(=O)OC(C)(C)C)N(C)S(C)(=O)=O (stereo not drawn) [Example 3, N-Methanesulfonyl N,N'-dimethyl N'-[(1,1-dimethylethoxy)carbonylcarbonyl] S-(1-methylpropyl) phosphorodiamidothioate] | 100% | 100% | + (A total of 15 knots or less is considered as a measure of control) |
| CCC(C)SP(=O)(N(C)C(=O)C(=O)OC1CCCCC1)N(C)S(C)(=O)=O (stereo not drawn) [Example 4, N'-Cyclohexyloxycarbonylcarbonyl N-methanesulfonyl N,N'-dimethyl S-(1-methylpropyl) phosphorodiamidothioate] | 100% | 30% | + (A total of 15 knots or less is considered as a measure of control) |
| CCC(C)SP(=O)(N(C)C(=O)C(=O)Oc1ccccc1)N(C)S(C)(=O)=O (stereo not drawn) [Example 6, N-Methanesulfonyl N,N'-dimethyl S-(1-methylpropyl) N'-phenoxycarbonylcarbonyl phosphorodiamidothioate] | 100% | 100% | + (A total of 15 knots or less is considered as a measure of control) |
| CCCSC(=O)C(=O)N(C)P(=O)(SC(C)CC)N(C)S(C)(=O)=O (stereo not drawn) [Example 7, N-Methanesulfonyl N,N'-dimethyl S-(1-methylpropyl) N'-(propylthio)carbonylcarbonyl phosphorodiamidothioate] | 100% | 100% | + (A total of 15 knots or less is considered as a measure of control) |
| CCC(C)SP(=O)(N(C)C(=O)C(=O)Oc1ccc(SC)cc1)N(C)S(C)(=O)=O (stereo not drawn) [Example 8, N-Methanesulfonyl N,N'-dimethyl S-(1-methylpropyl N'-(4-methylthiophenoxy)carbonylcarbonyl phosphorodiamidothioate] | 100% | 100% | + (A total of 15 knots or less is considered as a measure of control) |
| CCC(C)OC(=O)C(=O)N(C)P(=O)(SC(C)CC)N(C)S(C)(=O)=O (stereo not drawn) [Example 9, N-Methanesulfonyl N,N'-dimethyl S-(1-methylpropyl) N'-(1-methylpropyloxy)carbonylcarbonyl phosphorodiamidothioate] | 100% | 100% | + (A total of 15 knots or less is considered as a measure of control) |
| CCC(C)SP(=O)(N(C)C(=O)C(=O)OCCCl)N(C)S(C)(=O)=O (stereo not drawn) [Example 10, N'-(2-Chloroethoxy)carbonylcarbonyl N-methanesulfonyl N,N'-dimethyl S-(1-methylpropyl) phosphorodiamidothioate] | 100% | 100% | + (A total of 15 knots or less is considered as a measure of control) |
| CCSCCOC(=O)C(=O)N(C)P(=O)(SC(C)CC)N(C)S(C)(=O)=O (stereo not drawn) [Example 11, N'-(2-Ethylthioethoxy)carbonylcarbonyl N-methanesulfonyl N,N'-dimethyl S-(1-methylpropyl) phosphorodiamidothioate] | 100% | 100% | + (A total of 15 knots or less is considered as a measure of control) |
| CCC(C)SP(=O)(N(C)C(=O)C(=O)SC1CCCCC1)N(C)S(C)(=O)=O (stereo not drawn) [Example 12, N'-(Cyclohexylthio)carbonylcarbonyl N-methansulfonyl N,N'-dimethyl S-(1-methylpropyl) phosphorodiamidothioate] | 100% | 100% | + (A total of 15 knots or less is considered as a measure of control) |
| CCC(C)SP(=O)(N(C)C(=O)C(=O)OCCOC)N(C)S(C)(=O)=O (stereo not drawn) [Example 13, N-Methanesulfonyl N'-(2-methoxyethoxy)carbonylcarbonyl N,N'-dimethyl S-(1-methylpropyl) phosphorodiamidothioate] | 100% | 100% | + (A total of 15 knots or less is considered as a measure of control) |
| CCC(C)SP(=O)(N(C)C(=O)C(=O)OCc1ccccc1)N(C)S(C)(=O)=O (stereo not drawn) [Example 14, N'-Benzyloxycarbonylcarbonyl N-methanesulfonyl N,N'-dimethyl S-(1-methylpropyl) phosphorodiamidothioate] | 100% | 100% | + (A total of 15 knots or less is considered as a measure of control) |
